Results on two molecules are retold here after publication PMC12376758, “Restoration of CB1 receptor function in hippocampal GABAergic neurons rescues memory deficits in Huntington’s disease models” (Translational Neurodegeneration, 2025).

Like-named read-outs stand apart in the source and are kept apart here.

The target in assay [1] is T1, CB1R (Mus musculus, UniProt P47746).
T1 construct: from tissue
Put plainly: biochemical. It counts as binding. The conditions noted are these: for Fraction high: CP55940 inhibition curve; for IC50: CP55940 vs [3H]SR141716A 2 nmol/L.

In assay [2] the test system is mHtt. More on the design: method as in PMID 20929960. To be noted: pharmacological activation of CB1R, HD mouse models; cited from earlier work.
Assay [3] has as its system aged mice. The arrangement: method as in PMID 16221768, PMID 36697430. The conditions noted are these: chronic low-dose; cited from earlier work.

T1 sequence (P47746 whole entry): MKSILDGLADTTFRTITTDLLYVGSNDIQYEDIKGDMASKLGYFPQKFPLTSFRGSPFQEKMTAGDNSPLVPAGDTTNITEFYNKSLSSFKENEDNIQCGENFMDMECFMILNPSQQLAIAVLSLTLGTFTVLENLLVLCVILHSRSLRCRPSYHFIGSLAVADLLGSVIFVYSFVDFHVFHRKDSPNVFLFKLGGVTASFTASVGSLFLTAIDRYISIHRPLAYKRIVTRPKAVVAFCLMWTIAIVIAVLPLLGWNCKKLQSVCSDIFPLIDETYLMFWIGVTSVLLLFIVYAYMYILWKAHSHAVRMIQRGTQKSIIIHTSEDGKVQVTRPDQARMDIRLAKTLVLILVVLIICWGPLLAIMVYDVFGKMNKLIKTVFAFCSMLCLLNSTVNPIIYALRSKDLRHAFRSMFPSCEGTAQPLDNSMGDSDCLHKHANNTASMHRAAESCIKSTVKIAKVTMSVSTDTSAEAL

As for `CCCCCCC(C)(C)c1ccc([C@@H]2C[C@H](O)CC[C@H]2CCCO)c(O)c1` [CP55940], the Fraction high in assay [1] (hippocampal membranes of R6/1 WIN (1 mg/kg) mice) was 0.6378^$$$; in assay [1] (hippocampal membranes of WT WIN (1 mg/kg) mice), 0.4654; in assay [1] (hippocampal membranes of WT veh mice), 0.4696. The IC50 (usually the concentration at which inhibition is half-maximal) in assay [1] (IC50 (single binding site), hippocampal membranes of R6/1 veh mice) is 0.0644 ± 0.0121 µM; in assay [1] (IC50, first value (high-affinity site), hippocampal membranes of R6/1 WIN (1 mg/kg) mice), 0.0109 ± 0.016 µM; in assay [1] (IC50, first value (high-affinity site), hippocampal membranes of WT WIN (1 mg/kg) mice), 0.018 ± 0.0167 µM; in assay [1] (IC50, first value (high-affinity site), hippocampal membranes of WT veh mice) it was 0.0232 ± 0.0188 µM; in assay [1] (read-out: IC50, second value (low-affinity site), hippocampal membranes of R6/1 WIN (1 mg/kg) mice), 0.382 µM; in assay [1] (read-out: IC50, second value (low-affinity site), hippocampal membranes of WT WIN (1 mg/kg) mice), 0.85 µM. For the same molecule, the IC50 in assay [1] (read-out: IC50, second value (low-affinity site), hippocampal membranes of WT veh mice) was 1.14 µM.
On to `CCCCCc1cc(O)c2c(c1)OC(C)(C)[C@@H]1CCC(C)=C[C@@H]21` [THC, Δ9-tetrahydrocannabinol], for which the mHtt accumulation result in assay [2] is recorded as “alleviates”. For the same molecule, in assay [3], the cognitive function result is reported as “improves”, the cortical spine density entry is listed as “increasing” and the synaptic protein expression entry was “increasing”.
